Reference: patent US10479780B2, “Aminopyrazole derivatives” (Chugai Seiyaku Kabushiki Kaisha, priority 2015, dated 2019)
Where two headings read alike, the source gives them in different places.

Tests used:
Format in all cases: biochemical
human Src enzyme = biological target: T1, human Src enzyme (Homo sapiens, UniProt P12931); experiment: Src enzyme inhibitory activity (time-resolved fluorometry, biotinylated peptide phosphorylation); details: read-out: SRC_IC50
T1 construct: purchased Carna Biosciences, Inc. 08-173
Method: (§1) 2. Src Enzyme Inhibitory Activity Src inhibitory activity was determined based on activity of inhibiting phosphorylation reaction of a biotinylated peptide (EGPWLEEEEEAYGWMDF) using a human Src enzyme (manufactured by Carna Biosciences, Inc., cat 08-173). The phosphorylated biotinylated peptide was detected by time-resolved fluorometry using an anti-phosphorylated tyrosine antibody conjugated to europium cryptate, and streptavidin conjugated to XL665, an allophycocyanin derivative. The 50% inhibitory concentration (IC50) was calculated from the inhibition rate relative to the control group without containing the test substance.

human Lck enzyme = biological target: T2, human Lck enzyme (Homo sapiens, UniProt P06239); experiment: Lck enzyme inhibitory activity (time-resolved fluorometry, biotinylated peptide phosphorylation); details: read-out: LCK_IC50
T2 construct: purchased Carna Biosciences, Inc. 08-170
Method: as §1, with “3. Lck” for “2. Src”, “Lck” for “Src”, “08-170).” for “08-173).”

human Yes1 enzyme = biological target: T3, human Yes1 enzyme (Homo sapiens, UniProt P07947); experiment: Yes1 enzyme inhibitory activity (time-resolved fluorometry, biotinylated peptide phosphorylation); details: read-out: YES_IC50
T3 construct: made in house
Method: as §1, with “1. Yes1” for “2. Src”, “Yes1” for “Src”, “prepared using a baculovirus expression system.” for “(manufactured by Carna Biosciences, Inc., cat 08-173).”

[1] = biotinylated peptide phosphorylation

T1 sequence (P12931 whole entry): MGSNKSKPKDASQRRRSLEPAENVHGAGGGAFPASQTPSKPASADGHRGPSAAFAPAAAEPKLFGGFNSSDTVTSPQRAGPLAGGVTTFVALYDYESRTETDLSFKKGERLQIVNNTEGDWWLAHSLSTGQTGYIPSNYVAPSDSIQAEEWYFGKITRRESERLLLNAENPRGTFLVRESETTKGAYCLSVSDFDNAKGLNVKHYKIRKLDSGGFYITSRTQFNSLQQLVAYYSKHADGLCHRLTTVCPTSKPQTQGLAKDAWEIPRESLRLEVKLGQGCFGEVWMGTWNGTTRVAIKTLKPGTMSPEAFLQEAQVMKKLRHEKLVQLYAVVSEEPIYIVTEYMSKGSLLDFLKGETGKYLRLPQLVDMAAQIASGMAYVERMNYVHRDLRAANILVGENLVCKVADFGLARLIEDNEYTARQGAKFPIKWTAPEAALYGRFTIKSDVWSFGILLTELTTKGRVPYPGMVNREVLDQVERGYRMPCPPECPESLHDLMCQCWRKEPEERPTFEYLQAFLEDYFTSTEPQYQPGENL
T2 sequence (P06239 whole entry): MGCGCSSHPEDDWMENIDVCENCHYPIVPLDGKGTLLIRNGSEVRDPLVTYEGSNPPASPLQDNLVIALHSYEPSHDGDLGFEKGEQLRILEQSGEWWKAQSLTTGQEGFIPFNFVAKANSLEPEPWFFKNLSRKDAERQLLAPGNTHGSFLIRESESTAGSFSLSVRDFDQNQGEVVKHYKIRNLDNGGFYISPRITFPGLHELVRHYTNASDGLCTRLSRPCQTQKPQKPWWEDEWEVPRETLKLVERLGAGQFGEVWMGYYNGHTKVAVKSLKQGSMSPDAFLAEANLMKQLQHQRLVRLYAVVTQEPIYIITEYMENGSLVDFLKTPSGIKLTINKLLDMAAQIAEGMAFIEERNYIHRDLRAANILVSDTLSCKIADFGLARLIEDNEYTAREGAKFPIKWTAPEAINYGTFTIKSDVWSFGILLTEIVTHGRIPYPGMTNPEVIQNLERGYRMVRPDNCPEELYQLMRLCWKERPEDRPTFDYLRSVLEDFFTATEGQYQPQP
T3 sequence (P07947 whole entry): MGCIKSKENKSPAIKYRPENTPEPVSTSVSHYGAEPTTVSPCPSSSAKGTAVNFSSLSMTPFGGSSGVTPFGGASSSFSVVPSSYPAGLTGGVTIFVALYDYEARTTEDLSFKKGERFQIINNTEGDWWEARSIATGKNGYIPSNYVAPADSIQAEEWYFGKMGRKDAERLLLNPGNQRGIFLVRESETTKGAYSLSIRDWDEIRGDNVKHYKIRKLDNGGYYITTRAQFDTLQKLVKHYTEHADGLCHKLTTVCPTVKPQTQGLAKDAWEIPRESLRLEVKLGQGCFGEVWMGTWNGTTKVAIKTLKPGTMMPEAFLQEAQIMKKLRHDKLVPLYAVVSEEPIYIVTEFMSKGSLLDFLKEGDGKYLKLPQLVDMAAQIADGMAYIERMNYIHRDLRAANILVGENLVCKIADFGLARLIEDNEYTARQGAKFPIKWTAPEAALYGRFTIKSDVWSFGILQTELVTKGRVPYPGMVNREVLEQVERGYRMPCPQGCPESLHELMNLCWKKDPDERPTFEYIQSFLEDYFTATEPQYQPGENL

| SMILES | IC50 (human Src enzyme; [1]) | IC50 (human Lck enzyme; [1]) | IC50 (human Yes1 enzyme; [1]) | IC50 (human Src enzyme) | IC50 (human Lck enzyme) | IC50 (human Yes1 enzyme) |
| --- | --- | --- | --- | --- | --- | --- |
| Cc1cc(Oc2c(F)cccc2F)ncc1-n1ncc(C(=O)c2cc3cc(OCC(F)F)c(NS(=O)(=O)c4cccc(Cl)n4)cc3[nH]2)c1N [Example 5-1-572, N-[2-[5-amino-1-[6-(2,6-difluorophenoxy)-4-methylpyridin-3-yl]pyrazole-4-carbonyl]-5-(2,2-difluoroethoxy)-1H-indol-6-yl]-6-chloropyridine-2-sulfonamide] | 690 nM | 21 nM | 3.5 nM | – | – | – |
| Cc1cc2cc(C(=O)c3cnn(-c4ccc(Oc5cccc(F)c5F)cc4C)c3N)[nH]c2cc1NS(C)(=O)=O [Example 4-2-054, N-[2-[5-amino-1-[4-(2,3-difluorophenoxy)-2-methylphenyl]pyrazole-4-carbonyl]-5-methyl-1H-indol-6-yl]methanesulfonamide] | 62 nM | 15 nM | 1.5 nM | – | – | – |
| COc1cc2cc(C(=O)c3cnn(-c4ccc(Oc5cccc(F)c5F)cc4C)c3N)[nH]c2cc1NS(C)(=O)=O [Example 4-1-005, N-[2-[5-amino-1-[4-(2,3-difluorophenoxy)-2-methylphenyl]pyrazole-4-carbonyl]-5-methoxy-1H-indol-6-yl]methanesulfonamide] | 63 nM | 7.8 nM | 1 nM | – | – | – |
| Nc1c(C(=O)c2cc3cc(F)c(NS(=O)(=O)C4CC4)cc3[nH]2)cnn1-c1c(F)cc(Oc2ccccc2F)cc1F [Example 5-1-019, N-[2-[5-amino-1-[2,6-difluoro-4-(2-fluorophenoxy)phenyl]pyrazole-4-carbonyl]-5-fluoro-1H-indol-6-yl] cyclopropanesulfonamide] | – | – | – | 120 nM | 54 nM | 2.8 nM |
| Cc1cc(-n2ncc(C(=O)c3cc4cc(OC5CCN(C(C)C)CC5)c(F)cc4[nH]3)c2N)ccc1Oc1cccc(F)c1 [Example 5-1-208, [5-amino-1-[4-(3-fluorophenoxy)-3-methylphenyl]pyrazol-4-yl]-[6-fluoro-5-(1-propan-2-ylpiperidin-4-yl)oxy-1H-indol-2-yl] methanone] | – | – | – | 450 nM | 65 nM | 3.7 nM |
| Cc1cc2cc(C(=O)c3cnn(-c4cnc(Oc5ccccc5F)cc4C)c3N)[nH]c2cc1N1CCC(N2CCOCC2)CC1 [Example 5-1-078, [5-amino-1-[6-(2-fluorophenoxy)-4-methylpyridin-3-yl]pyrazol-4-yl]-[5-methyl-6-(4-morpholin-4-ylpiperidin-1-yl)-1H-indol-2-yl]methanone] | – | – | – | 10 nM | 2.4 nM | 0.28 nM |
| Cc1cc2cc(C(=O)c3cnn(-c4cnc(Oc5ccc(F)cc5)cc4C)c3N)[nH]c2cc1NS(C)(=O)=O [Example 4-2-067, N-[2-[5-amino-1-[6-(4-fluorophenoxy)-4-methylpyridin-3-yl]pyrazole-4-carbonyl]-5-methyl-1H-indol-6-yl]methanesulfonamide] | 97 nM | 59 nM | 6.3 nM | – | – | – |
| Cc1cc(-n2ncc(C(=O)c3cc4cc(OC5CCN(CCO)CC5)c(Br)cc4[nH]3)c2N)ccc1Oc1ccccc1F [Example 5-1-225, [5-amino-1-[4-(2-fluorophenoxy)-3-methylphenyl]pyrazol-4-yl]-[6-bromo-5-[1-(2-hydroxyethyl)piperidin-4-yl]oxy-1H-indol-2-yl]methanone] | – | – | – | 89 nM | 12 nM | 0.46 nM |
| Cc1cc(Oc2ccccc2F)ccc1-n1ncc(C(=O)c2cc3cc(OCC(F)F)c(NC4CCN(S(C)(=O)=O)CC4)cc3[nH]2)c1N [Example 4-23-017, [5-amino-1-[4-(2-fluorophenoxy)-2-methylphenyl]pyrazol-4-yl]-[5-(2,2-difluoroethoxy)-6-[(1-methylsulfonylpiperidin-4-yl)amino]-1H-indol-2-yl]methanone] | 28 nM | 13 nM | 5.1 nM | – | – | – |
| Cc1cc(Oc2ccccc2F)ccc1-n1ncc(C(=O)c2cc3cc(F)c(NS(=O)(=O)NC4COC4)cc3[nH]2)c1N [Example 4-5-005, [5-amino-1-[4-(2-fluorophenoxy)-2-methylphenyl]pyrazol-4-yl]-[5-fluoro-6-(oxetan-3-ylsulfamoylamino)-1H-indol-2-yl]methanone] | 29 nM | 11 nM | 0.51 nM | – | – | – |
| Cc1cc(Oc2ccccc2)cc(F)c1-n1ncc(C(=O)c2cc3cc(NS(C)(=O)=O)c(F)cc3[nH]2)c1N [Example 4-2-103, N-[2-[5-amino-1-(2-fluoro-6-methyl-4-phenoxyphenyl)pyrazole-4-carbonyl]-6-fluoro-1H-indol-5-yl]methanesulfonamide] | 7 nM | 0.97 nM | 0.41 nM | – | – | – |
| Cc1cc(Oc2c(F)cccc2F)ncc1-n1ncc(C(=O)c2cc3cc(Cl)c(NS(C)(=O)=O)cc3[nH]2)c1N [Example 4-2-086, N-[2-[5-amino-1-[6-(2,6-difluorophenoxy)-4-methylpyridin-3-yl]pyrazole-4-carbonyl]-5-chloro-1H-indol-6-yl]methanesulfonamide] | 99 nM | 8.3 nM | 1.6 nM | – | – | – |
| Cc1cc(Oc2c(F)cccc2F)ncc1-n1ncc(C(=O)c2cc3cc(OCC(F)F)c(NC4CN(S(C)(=O)=O)C4)cc3[nH]2)c1N [Example 4-23-022, {5-amino-1-[6-(2,6-difluorophenoxy)-4-methylpyridin-3-yl]pyrazol-4-yl}-[5-(2,2-difluoroethoxy)-6-[(1-methylsulfonylazetidin-3-yl)amino]-1H-indol-2-yl]methanone] | 24 nM | 8 nM | 1.3 nM | – | – | – |

Second part, the compound after the results:

| IC50 (human Src enzyme; [1]) | IC50 (human Lck enzyme; [1]) | IC50 (human Yes1 enzyme; [1]) | IC50 (human Src enzyme) | IC50 (human Lck enzyme) | IC50 (human Yes1 enzyme) | SMILES |
| --- | --- | --- | --- | --- | --- | --- |
| 80 nM | 31 nM | 17 nM | – | – | – | Cc1cc(Oc2ccccc2F)cc(F)c1-n1ncc(C(=O)c2cc3cc(OC(F)F)c(N4CCOCC4)cc3[nH]2)c1N [Example 4-25-025, [5-amino-1-[2-fluoro-4-(2-fluorophenoxy)-6-methylphenyl]pyrazol-4-yl]-[5-(difluoromethoxy)-6-morpholin-4-yl-1H-indol-2-yl]methanone] |
| 55 nM | 29 nM | 0.69 nM | – | – | – | Cc1cc(Oc2ccccc2F)ccc1-n1ncc(C(=O)c2cc3cc(OC(F)F)c(N4CCOCC4)cc3[nH]2)c1N [Example 4-25-024, [5-amino-1-[4-(2-fluorophenoxy)-2-methylphenyl]pyrazol-4-yl]-[5-(difluoromethoxy)-6-morpholin-4-yl-1H-indol-2-yl]methanone] |
| – | – | – | 27 nM | 2.8 nM | 2.2 nM | Cc1cc2cc(C(=O)c3cnn(-c4cnc(Oc5c(F)cccc5F)cc4C)c3N)[nH]c2cc1NS(=O)(=O)CC(=O)N1CCCC1 [Example 5-1-088, N-[2-[5-amino-1-[6-(2,6-difluorophenoxy)-4-methylpyridin-3-yl]pyrazole-4-carbonyl]-5-methyl-1H-indol-6-yl]-2-oxo-2-pyrrolidin-1-ylethanesulfonamide] |
| 21 nM | 7.6 nM | 0.52 nM | – | – | – | Cc1cc(Oc2ccccc2F)ccc1-n1ncc(C(=O)c2cc3cc(F)c(NS(C)(=O)=O)cc3[nH]2)c1N [Example 4-1-002, N-[2-[5-amino-1-[4-(2-fluorophenoxy)-2-methylphenyl]pyrazole-4-carbonyl]-5-fluoro-1H-indol-6-yl]methanesulfonamide] |
| 250 nM | 33 nM | 1.2 nM | – | – | – | COc1ccnc(S(=O)(=O)Nc2cc3[nH]c(C(=O)c4cnn(-c5ccc(Oc6ccccc6F)cc5C)c4N)cc3cc2F)c1 [Example 5-1-512, N-[2-[5-amino-1-[4-(2-fluorophenoxy)-2-methylphenyl]pyrazole-4-carbonyl]-5-fluoro-1H-indol-6-yl]-4-methoxypyridine-2-sulfonamide] |
| – | – | – | 17 nM | 4.4 nM | 0.87 nM | Cc1cc2cc(C(=O)c3cnn(-c4ccc(Oc5ccccc5F)cc4C)c3N)[nH]c2cc1N1C(=O)NC(C)(C)C1=O [Example 5-1-356, 3-[2-[5-amino-1-[4-(2-fluorophenoxy)-2-methylphenyl]pyrazole-4-carbonyl]-5-methyl-1H-indol-6-yl]-5,5-dimethylimidazolidine-2,4-dione] |
| – | – | – | 110 nM | 33 nM | 2.2 nM | CS(=O)(=O)Nc1cc2[nH]c(C(=O)c3cnn(-c4ccc(Oc5ccccc5F)cc4Cl)c3N)cc2cc1F [Example 5-1-018, N-[2-[5-amino-1-[2-chloro-4-(2-fluorophenoxy)phenyl]pyrazole-4-carbonyl]-5-fluoro-1H-indol-6-yl]methanesulfonamide] |
| 29 nM | 11 nM | 0.67 nM | – | – | – | Cc1cc(Oc2ccccc2F)ccc1-n1ncc(C(=O)c2cc3cc(F)c(NS(=O)(=O)NC4CCOCC4)cc3[nH]2)c1N [Example 4-5-003, [5-amino-1-[4-(2-fluorophenoxy)-2-methylphenyl]pyrazol-4-yl]-[5-fluoro-6-(oxan-4-ylsulfamoylamino)-1H-indol-2-yl]methanone] |
